Broadly, the inhibition is how much of the control response was suppressed. Read a low inhibition as little suppression.

The values that follow come from patent publication US20100105729A1, “ARYL-SUBSTITUTED HETEROCYCLIC PDE4 INHIBITORS AS ANTI-INFLAMMATORY AGENTS” (KALYPSYS, INC., priority 2006, published 2010).

T1 sequence (Q07343 330-659 limits assumed, species assumed): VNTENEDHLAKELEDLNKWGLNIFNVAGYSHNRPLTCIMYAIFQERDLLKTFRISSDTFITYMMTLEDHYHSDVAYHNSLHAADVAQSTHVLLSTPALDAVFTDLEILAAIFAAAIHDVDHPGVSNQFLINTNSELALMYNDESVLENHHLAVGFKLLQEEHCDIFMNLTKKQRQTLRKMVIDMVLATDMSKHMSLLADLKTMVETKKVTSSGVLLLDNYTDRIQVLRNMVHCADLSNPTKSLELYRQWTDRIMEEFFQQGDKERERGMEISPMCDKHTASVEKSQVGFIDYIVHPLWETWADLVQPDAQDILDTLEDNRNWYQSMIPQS

One test addresses T1, PDE4B (Homo sapiens, UniProt Q07343).
T1 construct: hexa-histidine (His6) (N); made in house
Put plainly: PDE4 IMAP Assay. Type of test: biochemical. To be noted: catalytic domain of PDE4B, fluorescence polarization. The gist of the method: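 His-tagged PDE4B catalytic domain was preincubated with compound for 10 min, then given fluorescent cAMP substrate for 2 h at room temperature. IMAP binding reagent was added for 10–30 min to capture the nucleotide monophosphate product, and fluorescence polarization was read.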
As for `COc1ccc(C2=NN(C(=O)c3cc(OC)c(OC)c(OC)c3)C(c3ccc(F)cc3)C2)cc1OC` (stereo not drawn) [Example 42, (3-(3,4-dimethoxyphenyl)-5-(4-fluorophenyl)-4,5-dihydro-1H-pyrazol-1-yl)(3,4,5-trimethoxyphenyl)methanone], the inhibition at 10 µM was at least 50%.
Still for that read-out and setting: the figure for `COc1ccc(C2=NN(C(=O)c3cccs3)C(c3ccccc3F)C2)cc1OC` (stereo not drawn) [Example 40, (3-(3,4-dimethoxyphenyl)-5-(2-fluorophenyl)-4,5-dihydro-1H-pyrazol-1-yl)(thiophen-2-yl)methanone] is at least 50%.
Same read-out and setting: as for `COc1ccc(C2=NN(S(=O)(=O)c3ccccc3)C(c3cccc([N+](=O)[O-])c3)C2)cc1OC` (stereo not drawn) [Example 53, 3-(3,4-dimethoxyphenyl)-5-(3-nitrophenyl)-1-(phenylsulfonyl)-4,5-dihydro-1H-pyrazole], the figure is below 50%.
On to `COc1ccc(C2=NN(S(=O)(=O)c3ccccc3)C(c3ccccc3)C2)cc1OC` (stereo not drawn) [Example 63, 3-(3,4-dimethoxyphenyl)-5-phenyl-1-(phenylsulfonyl)-4,5-dihydro-1H-pyrazole], for which the inhibition at 10 µM is below 50%.
`COc1ccc(C2=NN(C(=O)c3ccc(Br)o3)C(c3ccc(N(C)C)cc3)C2)cc1OC` (stereo not drawn) [Example 81, (5-bromofuran-2-yl)(3-(3,4-dimethoxyphenyl)-5-(4-(dimethylamino)phenyl)-4,5-dihydro-1H-pyrazol-1-yl)methanone]: the inhibition at 10 µM is below 50%.
The same measure, in the same setting: the figure for `COc1ccc(C2=NN(S(=O)(=O)c3ccc(C)cc3)C(c3cccc([N+](=O)[O-])c3)C2)cc1OC` (stereo not drawn) [Example 52, 3-(3,4-dimethoxyphenyl)-5-(3-nitrophenyl)-1-tosyl-4,5-dihydro-1H-pyrazole] is below 50%; for `COc1ccc(C2CC(c3ccc(OC)c(OC)c3)=NN2C(=O)CCCC(=O)O)cc1` (stereo not drawn) [Example 66, 5-(3-(3,4-dimethoxyphenyl)-5-(4-methoxyphenyl)-4,5-dihydro-1H-pyrazol-1-yl)-5-oxopentanoic acid] it is below 50%; for `COc1ccc(C2=NN(C(C)=O)C(c3ccccc3OC)C2)cc1OC` (stereo not drawn) [Example 105, 1-(3-(3,4-dimethoxyphenyl)-5-(2-methoxyphenyl)-4,5-dihydro-1H-pyrazol-1-yl)ethanone] it is below 50%.
On the same count and under the same terms, the figure for `COc1ccc(C2=NN(S(=O)(=O)c3ccc(C)cc3)C(c3ccc(C)cc3)C2)cc1OC` (stereo not drawn) [Example 57, 3-(3,4-dimethoxyphenyl)-5-p-tolyl-1-tosyl-4,5-dihydro-1H-pyrazole] is below 50%; for `COc1ccc(C2CC(c3ccc(OC)c(OC)c3)=NN2C(=O)CCC(=O)O)cc1` (stereo not drawn) [Example 97, 4-(3-(3,4-dimethoxyphenyl)-5-(4-methoxyphenyl)-4,5-dihydro-1H-pyrazol-1-yl)-4-oxobutanoic acid] it is below 50%; for `COc1ccc(C2=NN(S(=O)(=O)c3ccccc3)C(c3ccc(OC)c(OC)c3)C2)cc1OC` (stereo not drawn) [Example 86, 3,5-bis(3,4-dimethoxyphenyl)-1-(phenylsulfonyl)-4,5-dihydro-1H-pyrazole] it is at least 50%.
On the same count and under the same terms, as for `COc1ccc(C2=NN(C(=O)CCC(=O)O)C(c3cccc(OC)c3OC)C2)cc1OC` (stereo not drawn) [Example 69, 4-(5-(2,3-dimethoxyphenyl)-3-(3,4-dimethoxyphenyl)-4,5-dihydro-1H-pyrazol-1-yl)-4-oxobutanoic acid], the figure is below 50%.
Take `COc1ccc(C2=NN(C(=O)c3cc(OC)c(OC)c(OC)c3)C(c3ccc(Br)cc3)C2)cc1OC` (stereo not drawn) [Example 44, (5-(4-bromophenyl)-3-(3,4-dimethoxyphenyl)-4,5-dihydro-1H-pyrazol-1-yl)(3,4,5-trimethoxyphenyl)methanone]: the inhibition at 10 µM was at least 50%.
The same measure, in the same setting: as for `COc1ccc(C2=NN(C(C)=O)C(c3cc4cc(C)ccc4nc3Cl)C2)cc1OC` (stereo not drawn) [Example 74, 1-(5-(2-chloro-6-methylquinolin-3-yl)-3-(3,4-dimethoxyphenyl)-4,5-dihydro-1H-pyrazol-1-yl)ethanone], the figure is below 50%.
On the same count and under the same terms, as for `COc1ccc(C2=NN(C(C)=O)C(c3ccccc3F)C2)cc1OC` (stereo not drawn) [Example 104, 1-(3-(3,4-dimethoxyphenyl)-5-(2-fluorophenyl)-4,5-dihydro-1H-pyrazol-1-yl)ethanone], the figure is below 50%.
The same measure, in the same setting: the figure for `COc1ccc(C2=NN(C(C)=O)C(c3cn(-c4ccccc4)nc3-c3ccccc3)C2)cc1OC` (stereo not drawn) [Example 73, 1-(3-(3,4-dimethoxyphenyl)-5-(1,3-diphenyl-1H-pyrazol-4-yl)-4,5-dihydro-1H-pyrazol-1-yl)ethanone] is below 50%; for `COc1ccc(C2=NN(C(C)=O)C(c3ccc(OC)c(OC)c3)C2)cc1OC` (stereo not drawn) [Example 100, 1-(3,5-bis(3,4-dimethoxyphenyl)-4,5-dihydro-1H-pyrazol-1-yl)ethanone] it is below 50%; for `COc1ccc(C2=NN(S(=O)(=O)c3ccc(C)cc3)C(c3ccccc3)C2)cc1OC` (stereo not drawn) [Example 62, 3-(3,4-dimethoxyphenyl)-5-phenyl-1-tosyl-4,5-dihydro-1H-pyrazole] it is below 50%.
For `COc1ccc(C2=NN(S(=O)(=O)c3ccc(C)cc3)C(c3ccccc3Cl)C2)cc1OC` (stereo not drawn) [Example 60, 5-(2-chlorophenyl)-3-(3,4-dimethoxyphenyl)-1-tosyl-4,5-dihydro-1H-pyrazole], the inhibition at 10 µM is below 50%.
Molecule `COc1ccc(C2=NN(C(C)=O)C(c3cc4cccc(C)c4nc3Cl)C2)cc1OC` (stereo not drawn) [Example 76, 1-(5-(2-chloro-8-methylquinolin-3-yl)-3-(3,4-dimethoxyphenyl)-4,5-dihydro-1H-pyrazol-1-yl)ethanone] came in with an inhibition at 10 µM below 50%.
On the same count and under the same terms, the figure for `COc1ccc(C2=NN(C(=O)c3cc(OC)c(OC)c(OC)c3)C(c3ccc(C)cc3)C2)cc1OC` (stereo not drawn) [Example 45, (3-(3,4-dimethoxyphenyl)-5-p-tolyl-4,5-dihydro-1H-pyrazol-1-yl)(3,4,5-trimethoxyphenyl)methanone] is at least 50%; for `COc1ccc(C2=NN(C(=O)c3ccc(Br)o3)C(c3ccccc3Cl)C2)cc1OC` (stereo not drawn) [Example 50, (5-bromofuran-2-yl)(5-(2-chlorophenyl)-3-(3,4-dimethoxyphenyl)-4,5-dihydro-1H-pyrazol-1-yl)methanone] it is below 50%; for `COc1ccc(C2=NN(C(=O)c3cc(OC)c(OC)c(OC)c3)C(c3ccc(Cl)cc3)C2)cc1OC` (stereo not drawn) [Example 43, (5-(4-chlorophenyl)-3-(3,4-dimethoxyphenyl)-4,5-dihydro-1H-pyrazol-1-yl)(3,4,5-trimethoxyphenyl)methanone] it is at least 50%.
Take `COc1ccc(C2=NN(S(=O)(=O)c3ccc(C)cc3)C(c3ccccc3OC)C2)cc1OC` (stereo not drawn) [Example 93, 3-(3,4-dimethoxyphenyl)-5-(2-methoxyphenyl)-1-tosyl-4,5-dihydro-1H-pyrazole]: the inhibition at 10 µM was below 50%.
For the molecule `COc1ccc(C2=NN(C(=O)CCC(=O)O)C(c3ccc(Cl)cc3)C2)cc1OC` (stereo not drawn) [Example 70, 4-(5-(4-chlorophenyl)-3-(3,4-dimethoxyphenyl)-4,5-dihydro-1H-pyrazol-1-yl)-4-oxobutanoic acid], the inhibition at 10 µM is below 50%.
For `COc1ccc(C2=NN(C(C)=O)C(c3ccccc3)C2)cc1OC` (stereo not drawn) [Example 106, 1-(3-(3,4-dimethoxyphenyl)-5-phenyl-4,5-dihydro-1H-pyrazol-1-yl)ethanone], the inhibition at 10 µM was below 50%.
Still for that read-out and setting: the figure for `COc1ccc2cc(C3CC(c4ccc(OC)c(OC)c4)=NN3C(C)=O)c(Cl)nc2c1` (stereo not drawn) [Example 23, 1-(5-(2-chloro-7-methoxyquinolin-3-yl)-3-(3,4-dimethoxyphenyl)-4,5-dihydro-1H-pyrazol-1-yl)ethanone] is below 50%.
With `COc1ccc(C2=NN(S(C)(=O)=O)C(c3cccs3)C2)cc1OC` (stereo not drawn) [Example 2, 3-(3,4-dimethoxyphenyl)-1-(methylsulfonyl)-5-(thiophen-2-yl)-4,5-dihydro-1H-pyrazole], the inhibition at 10 µM is below 50%.
With `COc1ccc(C2=NN(S(=O)(=O)c3ccccc3)C(c3ccccc3Cl)C2)cc1OC` (stereo not drawn) [Example 59, 5-(2-chlorophenyl)-3-(3,4-dimethoxyphenyl)-1-(phenylsulfonyl)-4,5-dihydro-1H-pyrazole], the inhibition at 10 µM was below 50%.
On the same count and under the same terms, as for `COc1ccc(C2CC(c3ccc(OC)c(OC)c3)=NN2C(=O)c2ccccc2)cc1` (stereo not drawn) [Example 36, (3-(3,4-dimethoxyphenyl)-5-(4-methoxyphenyl)-4,5-dihydro-1H-pyrazol-1-yl)(phenyl)methanone], the figure is at least 50%; as for `COc1ccc(C2=NN(S(C)(=O)=O)C(c3ccccc3Cl)C2)cc1OC` (stereo not drawn) [Example 15, 5-(2-chlorophenyl)-3-(3,4-dimethoxyphenyl)-1-(methylsulfonyl)-4,5-dihydro-1H-pyrazole], below 50%.

A further test has as its system PDE4. Put plainly: PDE4 Cellular CNG Assay. Type of test: cell-based. To be noted: HEK293 cells stably expressing the CNG channel. The text has this: Compounds may be screened for functional potency in in vitro cellular assays for their ability to inhibit the activity of phosphodiesterase (PDE) enzymes. A commercial membrane potential assay, Molecular Device's membrane potential assay kit, was modified and utilized to measure the inhibitory activity of compounds on PDE isoforms in living cells. The cellular assay utilizes genetically engineered cyclic nucleotide-gated (CNG) channels as cyclic-AMP (cAMP) sensors. On binding cAMP these ion channels open, allowing the flow of cations across the plasma membrane. CNG channel activity can be monitored by measuring Ca^2+influx in cell populations. The influx of Ca causes a change in membrane potential that is measured by voltage sensitive dyes. PDE inhibitors prevent the degradation of cAMP that is generated by adenylyl cyclases that are activated upon stimulation of G protein-coupled receptors (GPCR) linked to the cAMP pathway. In brief, Molecular Device's membrane potential dye was added to HEK293 cells stably expressing the CNG channel and incubated for 2 hours at room temperature. Test compounds were then added to the cells and incubated for 15 minutes. A GPCR agonist was then added to the cells to stimulate the cAMP pathway and incubated for 45 minutes. Fluorescent measurements were then conducted with either the Molecular Devices Acquest or Analyst. PDE inhibitors will inhibit the degradation of cAMP and cause an increase in fluorescent signal. Roflumilast and Rolipram are the positive controls used in the assay.
As for `COc1ccc(C2=NN(C(=O)c3cc(OC)c(OC)c(OC)c3)C(c3ccc(F)cc3)C2)cc1OC` (stereo not drawn) [Example 42, (3-(3,4-dimethoxyphenyl)-5-(4-fluorophenyl)-4,5-dihydro-1H-pyrazol-1-yl)(3,4,5-trimethoxyphenyl)methanone], the “PDE4 Cellular CNG Assay Activity at 10 μM” value is “+ (+ indicates Activity ≧50% at 10 μM)”.
On the same count and under the same terms, the entry for `COc1ccc(C2=NN(C(=O)c3cccs3)C(c3ccccc3F)C2)cc1OC` (stereo not drawn) [Example 40, (3-(3,4-dimethoxyphenyl)-5-(2-fluorophenyl)-4,5-dihydro-1H-pyrazol-1-yl)(thiophen-2-yl)methanone] is “− (− indicates Activity <50% at 10 μM)”.
